According to ChEMBL document CHEMBL5050859, “Gpx4 inhibitors, pharmaceutical compositions thereof, and their use for treating gpx4-mediated diseases” (2021):

Tested on: Huh-7
Assay: Antiproliferative activity against human Huh-7 cells after 24 hrs by Cell Titer Glo assay
Type: functional, cell-based
Conditions: Huh-7, 24 h

Row | SMILES | EC50
1 | CC(=O)Nc1cccc(N(C(=O)CCl)C(C(=O)NCCc2ccccc2)c2ccc([N+](=O)[O-])cc2)c1 (stereo not given) | 2000 nM
2 | CC(C)N(C(=O)CCl)C(C(=O)NCCc1ccccc1)c1cccs1 (stereo not given) | > 10000 nM
3 | C=CC(=O)N(C1CCC1)C1(C(=O)NCc2ccccc2)CCOCC1 | > 10000 nM
4 | C#CC(=O)N(c1ccc(CO)cc1)C(C(=O)NC(C)(C)C)c1cccc(N)c1 (stereo not given) | 2000 nM
5 | C#CC(=O)N(c1cccc(Cl)c1)C(C(=O)NCc1ccccc1)C1CCC(C(=O)OC)CC1 (stereo not given) | 100 nM
6 | COc1ccc(N(C(=O)CCl)C(C)C(=O)NCCc2ccccc2)cc1Cl (stereo not given) | 500 nM
7 | C#CC(=O)N(c1cccc(Cl)c1)C1(C(=O)NCC(=O)O)CCOCC1 | > 10000 nM
8 | C#CC(=O)N(Cc1cc[nH]n1)C1(C(=O)NCc2ccccc2)CCOCC1 | > 10000 nM
9 | C#CC(=O)N(c1ccc2c(cnn2C)c1)C1(C(=O)NCc2ccccc2)CCCC(=O)C1 (stereo not given) | 100 nM
10 | C#CC(=O)N(c1ccc(CO)cc1)C(C(=O)NCc1ccccc1)c1ccc(N)cc1 (stereo not given) | 500 nM
11 | C#CC(=O)N(Cc1cccc(O)c1)C1(C(=O)NCc2ccccc2)CCCC(C(=O)O)C1 (stereo not given) | > 10000 nM
12 | COc1ccc(N(C(=O)CCl)C2(C(=O)NCc3ccccc3)CCOCC2)cc1Cl | 100 nM
13 | CC#CC(=O)N(c1ccc2c(cnn2C)c1)C1(C(=O)NCc2ccccc2)CCCOC1 (stereo not given) | 2000 nM
14 | C=C(F)C(=O)N(c1ccc2c(cnn2C)c1)C1(C(=O)NCc2ccccc2)CCOCC1 | > 10000 nM
15 | C#CC(=O)N(c1ccc(N)cc1)C(C(=O)NC(C)(C)C)c1ccc(N)cc1 (stereo not given) | 2000 nM
16 | C=CC(=O)N(c1ccc(OC)c(Cl)c1)C(C(=O)NCc1ccccc1)c1cccc(N)c1 (stereo not given) | > 10000 nM

Row | SMILES | EC50
17 | C#CC(=O)N(c1cccc(-c2cc[nH]n2)c1)C1(C(=O)NCc2ccccc2)CCOCC1 | 100 nM
18 | C#CC(=O)N(C1CCC1)C1(C(=O)NCc2ccccc2)CCCC(C(=O)OC)C1 (stereo not given) | 500 nM
19 | C[Si](C)(C)C#CC(=O)N(c1cccc(Cl)c1)C1(C(=O)NCc2cccc(Cl)c2)CCOCC1 | ≤ 100 nM
20 | C#CC(=O)N(c1cccc(Cl)c1)[C@]1(C(=O)NCc2ccccc2)CC[C@@H](O)CC1 | 100 nM
21 | O=C(CCl)N(c1cccc2nsnc12)C1(C(=O)NCc2ccccc2)CCOCC1 | 100 nM
22 | COc1ccc(N(C(=O)CCl)C(C(=O)NCCc2ccccc2)c2ccc(NC(=O)CO)cc2)cc1Cl (stereo not given) | 500 nM
23 | C#CC(=O)N(c1ccc(OC)c(Cl)c1)C(C(=O)NC(C)(C)C)c1cccc(N)c1 (stereo not given) | 100 nM
24 | C#CC(=O)N(c1cccc(S(C)(=O)=O)c1)C(C(=O)NC(C)(C)C)c1ccc(N)cc1 (stereo not given) | 2000 nM
25 | CC(=O)N(c1ccc2c(cnn2C)c1)C1(C(=O)NCc2ccccc2)CCCOC1 (stereo not given) | > 10000 nM
26 | C#CC(=O)N(c1ccc(S(N)(=O)=O)cc1)C(C(=O)NC(C)(C)C)c1ccc(N)cc1 (stereo not given) | > 10000 nM
27 | C#CC(=O)N(c1ccc(OC)cc1OC)C(C(=O)NCC(=O)OCC)c1cccs1 (stereo not given) | 500 nM
28 | COc1ccc(N(C(=O)CCl)C(C(=O)NCCc2ccccc2)c2ccc(N)cc2)cc1Cl (stereo not given) | 100 nM
29 | C#CC(=O)N(c1cccn2cnnc12)C(C(=O)NCc1ccccc1)c1ccccc1 (stereo not given) | 100 nM
30 | C#CC(=O)N(c1cccc(-c2ccn(C)n2)c1)C1(C(=O)NCc2ccccc2)CCOCC1 | 100 nM
31 | CC(Cl)C(=O)N(c1ccc2c(cnn2C)c1)C1(C(=O)NCc2ccccc2)CCOCC1 (stereo not given) | > 10000 nM
32 | C=CC(=O)N(Cc1cccc(O)c1)C1(C(=O)NCc2ccccc2)CCOCC1 | > 10000 nM

Results, then the compound that gave them:

Row | EC50 | SMILES
33 | ≤ 100 nM | C#CC(=O)N(c1cccc(Cl)c1)C1(C(=O)NCc2ccccc2)CCOCC1
34 | 100 nM | C#CC(=O)N(c1cccc(F)c1)C(C(=O)NCc1ccccc1)c1ccc(N)cc1 (stereo not given)
35 | ≤ 100 nM | C#CC(=O)N(c1ccccc1N1CCOCC1)C1(C(=O)NCc2ccccc2)CCOCC1
36 | ≤ 100 nM | C#CC(=O)N(c1ccc2c(cnn2C)c1)C1(C(=O)NCc2ccccc2)CCCOC1 (stereo not given)
37 | ≤ 100 nM | C#CC(=O)N(c1ccc2c(c1)OC(F)(F)O2)C(C(=O)NCc1ccccc1)c1ccccc1 (stereo not given)
38 | ≤ 100 nM | C#CC(=O)N(c1cccc(Cl)c1)C(C(=O)NCc1ccccc1)c1ccc(F)cc1 (stereo not given)
39 | ≤ 100 nM | C#CC(=O)N(c1ccc2cnn(C)c2c1)C(C(=O)NCc1ccccc1)c1ccccc1 (stereo not given)
40 | ≤ 100 nM | C#CC(=O)N(c1cc(Cl)ccc1F)C(C(=O)NCc1ccccc1)c1ccc(N)cc1 (stereo not given)
41 | ≤ 100 nM | C#CC(=O)N(c1cccc(C(=O)OC)c1)C(C(=O)NCc1ccccc1)c1cccc(N)c1 (stereo not given)
42 | ≤ 100 nM | C#CC(=O)N(c1cccc2cnn(C)c12)C(C(=O)NCc1ccccc1)c1ccccc1 (stereo not given)
43 | ≤ 100 nM | C#CC(=O)N(c1cccc(Cl)c1)C(C(=O)NCc1ccccc1)c1ccccc1 (stereo not given)
44 | ≤ 100 nM | C#CC(=O)N(c1ccc(OC)cc1)C(C(=O)NCc1ccccc1)c1cccc(N)c1 (stereo not given)
45 | ≤ 100 nM | C#CC(=O)N(c1cccc(Cl)c1)C1(C(=O)NCc2ccccc2)CCCOC1 (stereo not given)
46 | ≤ 100 nM | C#CC(=O)N(c1cc2c(cc1I)OCO2)C(C(=O)NCc1ccccc1)c1ccccc1 (stereo not given)
47 | ≤ 100 nM | C#CC(=O)N(c1cccc(Cl)c1)C1(C(=O)NCc2cccc(Cl)c2)CCOCC1
48 | ≤ 100 nM | C#CC(=O)N(c1ccc(C#N)cc1)C(C(=O)NCc1ccccc1)c1ccc(N)cc1 (stereo not given)
49 | ≤ 100 nM | C#CC(=O)N(c1ccc(OC)c(Cl)c1)C(C(=O)NCc1ccccc1)c1ccccc1 (stereo not given)
50 | ≤ 100 nM | C#CC(=O)N(c1cccc(Cl)c1Cl)C(C(=O)NCc1ccccc1)c1ccccc1 (stereo not given)
51 | ≤ 100 nM | C#CC(=O)N(c1ccc(Cl)cc1)C(C(=O)NCc1ccccc1)c1cccc(N)c1 (stereo not given)
52 | ≤ 100 nM | C#CC(=O)N(c1cc(Cl)ccc1I)C(C(=O)NCc1ccccc1)c1ccccc1 (stereo not given)
53 | ≤ 100 nM | C#CC(=O)N(c1ccc2c(cnn2C)c1)C(C(=O)NCc1ccccc1)c1ccccc1 (stereo not given)

Tested on: Huh-7
Assay: Antiproliferative activity against human Huh-7 cells in presence of 1 uM ferrostatin-1 measured after 24 hrs by Cell Titer Glo assay
Type: functional, cell-based
Conditions: Huh-7, 24 h

Row | EC50 | SMILES
54 | > 10000 nM | C#CC(=O)N(c1cccc(Cl)c1)C1(C(=O)NCc2ccccc2)CCOCC1

Tested on: Huh-7
Assay: Antiproliferative activity against human Huh-7 cells in presence of 1 uM liproxstatin-1 measured after 24 hrs by Cell Titer Glo assay
Type: functional, cell-based
Conditions: Huh-7, 24 h

Row | EC50 | SMILES
55 | > 10000 nM | C#CC(=O)N(c1cccc(Cl)c1)C1(C(=O)NCc2ccccc2)CCOCC1
